Reference: patent US20110182992A1, “PEPTIDES AND PEPTIDE MIMETICS TO TREAT PATHOLOGIES ASSOCIATED WITH EYE DISEASE” (priority 2008, published 2011)
Blank lines part the entries; values can stand above or below the molecule they belong to.

Key:
ApoE null mice [1] = experiment: HDL function after D-4F and/or statin in the drinking water; type: in vivo, mouse; conditions: 0.05 mg/ml in the drinking water for 24 hours
[2] = tested on: human aortic endothelial cells; experiment: Prevention of LDL-induced monocyte chemotactic activity, co-incubation; type: cell-based; conditions: co-incubation with control human LDL 200 μg protein/ml, overnight
ApoE null mice [3] = experiment: Ability of LDL from apoE null mice given oral peptides to induce monocyte chemotactic activity (LDL susceptibility to oxidation); type: in vivo, mouse; conditions: added to the drinking water, 24 hrs
From the text: FIG. 5 illustrates the effect of oral apo A-1 peptide mimetic and apoJ peptide on LDL susceptibility to oxidation. The values are the mean±SD of the number of migrated monocytes in 9 high power fields from each of quadruple assay wells. Asterisks indicate significant difference (p<0.05) as compared to No Peptide LDL.
FIG. 5 illustrates the effect of oral apo A-1 peptide mimetic and apoJ peptide on LDL susceptibility to oxidation. […] After 24 hrs blood was collected from the mice shown in FIG. 4, plasma fractionated by FPLC and fractions containing LDL (designated as mLDL for murine LDL) were pooled and LDL susceptibility to oxidation as determined by induction of monocyte chemotactic activity was determined. For the assay controls the culture wells received no lipoproteins (no additions), mLDL alone (at 200 μg cholesterol/ml), or mLDL+ standard normal human HDL (designated as Cont. h HDL, 350 μg HDL cholesterol).
Murine LDL, mLDL, from mice that received the D-4F (F mLDL) or those that received the apoJ peptide (J mLDL) were added to artery wall cell cultures.

PON1 = conditions: added to the drinking water, 24 hrs
ApoE null mice [4] = experiment: Protection against LDL-induced monocyte chemotactic activity by HDL from apo E null mice given oral peptides; type: in vivo, mouse
From the text: FIG. 4 illustrates protection against LDL-induced monocyte chemotactic activity by HDL from apo E null mice given oral peptides. The values are the mean±SD of the number of migrated monocytes in 9 high power fields from each of quadruple assay wells. Asterisks indicate significant difference (p<0.05) as compared to No Peptide mHDL.
After 24 hrs blood was collected, plasma fractionated by FPLC and fractions containing LDL (designated as mLDL for murine LDL) and fractions containing HDL (designated as mHDL) were separately pooled and HDL protective capacity against LDL oxidation as determined by LDL-induced monocyte chemotactic activity was determined. For the assay controls the culture wells received no lipoproteins (no additions), mLDL alone (at 200 μg cholesterol/ml), or mLDL+ standard normal human HDL (designated as Cont. h HDL, at 350 μg HDL cholesterol/ml).
For testing the murine HDL, mLDL together with murine HDL (+F mHDL or +J mHDL) were added to artery wall cell cultures. […] The murine HDL was used at 100µg cholesterol/ml.

[5] = tested on: human aortic endothelial cells; experiment: Prevention of LDL-induced monocyte chemotactic activity by pre-treatment of artery wall cells; type: cell-based; conditions: 6 hrs pre-incubation with peptide, wash, then control human LDL 200 μg protein/ml overnight
Protocol: FIG. 2 illustrates the prevention of LDL-induced monocyte chemotactic activity by pre-treatment of artery wall cells with D-J336 as compared to D-4F. The data are mean±SD of the number of migrated monocytes in nine high power fields in quadruple cultures.
FIG. 2 illustrates a comparison of the effect of D-4F with the effect of D-J336 on the prevention of LDL induced monocyte chemotactic activity in a pre-incubation. Human aortic endothelial cells were pre-incubated with D-J336 or D-4F at 4, 2, and 1µg/ml for DJ336 or 100, 50, 25, and 12.5 μg/ml for D-4F for 6 hrs. The cultures were then washed and were incubated with medium alone (no addition), or with control human LDL (200 μg protein/ml), or with control human LDL+ control human HDL (350 μg HDL protein/ml) as assay controls. The wells that were pre-treated with peptides received the control human LDL at 200 μg protein/ml. Following overnight incubation, the supernatants were assayed for monocyte chemotactic activity.

LDL receptor null mice = experiment: HDL protective capacity in LDL receptor null mice given peptide in drinking water; type: in vivo; conditions: 0.25 or 0.5 mg per ml of drinking water, 24 or 48 hrs, mouse HDL at 100 μg/ml
Protocol: FIG. 3 illustrates the effect of apo J peptide mimetics on HDL protective capacity in LDL receptor null mice. The values are the mean±SD of the number of migrated monocytes in 9 high power fields from each of quadruple assay wells.
D-4F designated as F, or the apoJ peptide made from D amino acids (D-J336, designated as J) was added to the drinking water of LDL receptor null mice (4 per group) at 0.25 or 0.5 mg per ml of drinking water. After 24- or 48-hrs blood was collected from the mice and their HDL was isolated and tested for its ability to protect against LDL-induced monocyte chemotactic activity. Assay controls included culture wells that received no lipoproteins (no addition), or control human LDL alone (designated as LDL, 200µg cholesterol/ml), or control LDL+ control human HDL (designated as +HDL, 350µg HDL cholesterol). For testing the mouse HDL, the control LDL was added together with mouse HDL (+F HDL or +J HDL) to artery wall cell cultures. The mouse HDL was added at 100 μg cholesterol/ml respectively.

ApoE null mice [6] = experiment: Protection against PAPC oxidation by HPODE and induction of monocyte chemotactic activity by HDL from apo E null mice given oral peptides; type: in vivo, mouse; conditions: added to the drinking water, 24 hrs; murine HDL 100 μg cholesterol/ml
Protocol: The values are the mean±SD of the number of migrated monocytes in 9 high power fields from each of quadruple assay wells. Asterisks indicate significant difference (p<0.05) as compared to No Peptide mHDL.
After 24 hrs blood was collected, plasma fractionated by FPLC and fractions containing HDL (designated as mHDL) were pooled and HDL protective capacity against PAPC oxidation as determined by the induction of monocyte chemotactic activity was determined. For the assay controls the culture wells received no lipoproteins (no additions), the phospholipid PAPC at 20µg/ml+HPODE, at 1.0 μg/ml, or PAPC+HPODE plus standard normal human HDL (at 350 μg HDL cholesterol/ml and designated as +Cont. h HDL).
For testing the murine HDL, PAPC+HPODE together with murine HDL (+F mHDL or +J mHDL) were added to artery wall cell cultures. […] The murine HDL was used at 100 μg cholesterol/ml.

human volunteers = experiment: LDL isolated after infusion of apo A-I into humans: oxidation by human artery wall cells; type: in vivo
From the text: (§1) We discovered that normal HDL inhibits three steps in the formation of mildly oxidized LDL. […] These seeding molecules were required for cocultures of human artery wall cells to be able to oxidize LDL and for the LDL to induce the artery wall cells to produce monocyte chemotactic activity.

human LDL = experiment: Treating human LDL in vitro: removal of seeding molecules
From the text: as §1

mice = experiment: LDL isolated after injection of apo A-I into mice: oxidation by human artery wall cells; type: in vivo, mouse
From the text: as §1

[7] = Association with pre-beta HDL / HDL and clearance from the circulation after an oral dose; conditions: mouse, in vivo
C57Bl/6J-apoE null mice = experiment: Intravitreal L-4F: electron microscopy of Bruch's membrane of aged C57Bl/6J-apoE null mice; type: in vivo, mouse
From the text: In every other RPE cell big lipid vacuoles (asterisks) are found, a sign of stress and beginning degeneration. PR: photo receptors; CC: choriocapillaris: EC: vascular endothelial cell of the choriocapillaris.
The membrane is slightly thickened with multiple translucent lipid vacuoles. A few are marked with asterisks. EC: vascular endothelial cell of choriocapillaris.
An effective clearance of this lipid debris via an ApoA-I mimetic peptide (L-4F) could prevent early AMD-like degeneration.
L-4F was injected directly into the vitreous cavity of right eyes of 10 eight month old C57Bl/6J-apoE null mice. A single dose of 3 μl was injected with a L-4F concentration of 400 μg/ml. All left eyes were untreated throughout the study and thus be served as controls. The animals were then sacrificed 21 days after the injection and the eyes were immediately enucleated and fixed. Eyes then were processed for electron microscopy (EM).

[8] = tested on: mice fed an atherogenic diet; conditions: 20 μg daily injected; cited from earlier work

Molecule: CC(C)c1c(C(=O)Nc2ccccc2)c(-c2ccccc2)c(-c2ccc(F)cc2)n1CC[C@@H](O)C[C@@H](O)CC(=O)O [atorvastatin, reference compound]
- HDL function, statin alone (ApoE null mice [1]): did not improve HDL function

Molecule: Ac-LLEQLNEQFNWVSRLANLTQGE-NH2 [D-J336]
- in vitro concentration that prevents LDL-induced monocyte chemotactic activity by human artery wall cells, relative to the concentration required for the D-4F peptide [2]: 10 to 25 times less
- potency in rendering LDL from apo E null mice resistant to oxidation by human artery wall cells (induction of monocyte chemotactic activity) (ApoE null mice [3]): slightly more potent than D-4F
- potency in increasing the paraoxonase activity of apo E null mice (PON1): at least as potent as D-4F
- activity of murine HDL against LDL-induced monocyte chemotactic activity (ApoE null mice [4]; ApoE null mice, peptide in drinking water 24 hrs, murine HDL at 100 μg/ml): as active as 350µg/ml of normal human HDL
- potency in enhancing HDL protective capacity in apo E null mice (ApoE null mice [4]; added to the drinking water, 24 hrs): as potent as D-4F
- potency in preventing LDL oxidation by artery wall cells in vitro, compared with D-4F [5]: 10-25 times more potent
- activity of mouse HDL in preventing control LDL from inducing artery wall cells to produce monocyte chemotactic activity (LDL receptor null mice): as active as 350 μg/ml of control human HDL
- potency in causing HDL to inhibit oxidation of PAPC by HPODE in a human artery wall co-culture (monocyte chemotactic activity) (ApoE null mice [6]): as potent as D-4F

Molecule: apo A-I: apolipoprotein A-I, the major protein of HDL
- oxidation of LDL isolated after infusion, by human artery wall cells, and induction of monocyte chemotactic activity (human volunteers): resistant to oxidation by human artery wall cells and did not induce monocyte chemotactic activity
- removal of seeding molecules from human LDL in vitro (human LDL): removed seeding molecules from the LDL that included HPODE and HPETE
- oxidation of LDL isolated after injection, by human artery wall cells, and induction of monocyte chemotactic activity (mice): resistant to oxidation by human artery wall cells and did not induce monocyte chemotactic activity

- time it remains associated with the HDL fractions (pre-beta HDL, HDL) [7]: at least 36 hours
Molecule: Ac-LVGRQLEEFL-NH2 [D-[113-122]apoJ]
- association with pre-beta HDL and HDL [7]: slowly associates with pre-beta HDL and to a lesser extent with HDL

Molecule: Ac-D-W-F-K-A-F-Y-D-K-V-A-E-K-F-K-E-A-F-NH2 (Ac-DWFKAFYDKVAEKFKEAF-NH2) [Peptide L-4F]
- Bruch's membrane structure, electron microscopy of treated eyes (C57Bl/6J-apoE null mice; magnification 5,000×): regular and uniform Bruch's membrane structure
- lipid droplets in RPE cells, electron microscopy of treated eyes (C57Bl/6J-apoE null mice; magnification 5,000×): none of the RPE cells showed lipid droplets
- translucent lipid vacuoles in Bruch's membrane, electron microscopy of a treated eye (C57Bl/6J-apoE null mice; magnification 20,000×): no translucent lipid vacuoles shown
- Bruch's membrane and RPE morphology and lipid content of treated eyes compared to untreated eyes (EM) (C57Bl/6J-apoE null mice; single intravitreal 3 μl of 400 μg/ml, 21 days, EM of 2 mice): significant improvement in Bruch's membrane and RPE morphology as well as lipid content

Molecule: Ac-D-W-L-K-A-F-Y-D-K-V-F-E-K-F-K-E-F-F-NH2 (Ac-DWLKAFYDKVFEKFKEFF-NH2) [Peptide 5F]
- LDL from PBS-injected mice compared with LDL from peptide-injected mice: oxidation and induction of monocyte chemotactic activity [8]: more readily oxidized and more readily induced monocyte chemotactic activity than LDL taken from mice fed the same diet but injected with 20µg daily of peptide 5F
